Reference: PubChem BioAssay AID2060900 (Molecular Pharmacology Branch, DTP, NCI, 2025)

Tested on: 521955-158-R2-J5-PDC complex spheroids, viability
Assay: Anticancer human tumor 521955-158-R2-J5-PDC patient-derived pancreatic carcinoma cell line growth inhibition [RAS]
Settings: for IC50: curve of first compound; for viability, T/C: stronger effect = lower value
In short: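 Agents were tested in combination matrices in half-log decrements from a top concentration at or near clinical Cmax (10 microM if undetermined). Targets were multi-cell spheroids of tumour lines plus HUVEC and MSC stromal cells.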

[1] = second compound 0.000949 µM, first compound 0.0316 µM
[2] = second compound 0.000949 µM, first compound 0.1 µM
[3] = second compound 0.000949 µM, first compound 0.316 µM
[4] = second compound 0.000949 µM, first compound 1 µM
[5] = second compound 0.003 µM, first compound 0.0316 µM
[6] = second compound 0.003 µM, first compound 0.1 µM
[7] = second compound 0.003 µM, first compound 0.316 µM
[8] = second compound 0.003 µM, first compound 1 µM
[9] = second compound 0.00949 µM, first compound 0.0316 µM
[10] = second compound 0.00949 µM, first compound 0.1 µM
[11] = second compound 0.00949 µM, first compound 0.316 µM
[12] = second compound 0.00949 µM, first compound 1 µM
[13] = second compound 0.03 µM, first compound 0.0316 µM
[14] = second compound 0.03 µM, first compound 0.1 µM
[15] = second compound 0.03 µM, first compound 0.316 µM
[16] = second compound 0.03 µM, first compound 1 µM
[17] = second compound 0.0949 µM, first compound 0.0316 µM
[18] = second compound 0.0949 µM, first compound 0.1 µM
[19] = second compound 0.0949 µM, first compound 0.316 µM
[20] = second compound 0.0949 µM, first compound 1 µM
[21] = second compound 0.3 µM, first compound 0.0316 µM
[22] = second compound 0.3 µM, first compound 0.1 µM
[23] = second compound 0.3 µM, first compound 0.316 µM
[24] = second compound 0.3 µM, first compound 1 µM
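Further: compound exposure lasted seven days before the viability read.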
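Wherever viability, T/C is given: spheroids also contain HUVEC endothelial cells and mesenchymal stem cells as stroma.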

Cc1nc(N2CCC3(CC2)COC(C)C3N)c(CO)nc1Sc1ccnc(N)c1Cl (centres undefined) + CCn1c(-c2cccnc2C(C)OC)c2c3cc(ccc31)N1CCOC(CC(NC(=O)C(C(C)C)N(C)C(=O)C3(F)CCN(C(=O)C#CC(C)(C)N(C)C)CC3)C(=O)N3CCCC(N3)C(=O)OCC(C)(C)C2)C1
IC50 (second compound 0.000949 µM): > 10000 nM | IC50 (second compound 0.003 µM): 5110 nM | IC50 (second compound 0.00949 µM): 3120 nM | IC50 (second compound 0.03 µM): 1190 nM | IC50 (second compound 0.0949 µM): 4390 nM | IC50 (second compound 0.3 µM): 546 nM | viability, T/C [1]: 72.8% | viability, T/C [2]: 64% | viability, T/C [3]: 50.8% | viability, T/C [4]: 59.4% | viability, T/C (second compound 0.000949 µM, first compound 3.16 µM): 52.6% | viability, T/C (second compound 0.000949 µM, first compound 10 µM): 50.8% | viability, T/C [5]: 74.3% | viability, T/C [6]: 61.3% | viability, T/C [7]: 73.6% | viability, T/C [8]: 61.4% | viability, T/C (second compound 0.003 µM, first compound 3.16 µM): 49.4% | viability, T/C (second compound 0.003 µM, first compound 10 µM): 46.4% | viability, T/C [9]: 75.7% | viability, T/C [10]: 61.8% | viability, T/C [11]: 61.6% | viability, T/C [12]: 50.4% | viability, T/C (second compound 0.00949 µM, first compound 3.16 µM): 50.1% | viability, T/C (second compound 0.00949 µM, first compound 10 µM): 48.4% | viability, T/C [13]: 83% | viability, T/C [14]: 64.4% | viability, T/C [15]: 54.2% | viability, T/C [16]: 49.2% | viability, T/C (second compound 0.03 µM, first compound 3.16 µM): 50.8% | viability, T/C (second compound 0.03 µM, first compound 10 µM): 47% | viability, T/C [17]: 68% | viability, T/C [18]: 66.3% | viability, T/C [19]: 55.8% | viability, T/C [20]: 54.1% | viability, T/C (second compound 0.0949 µM, first compound 3.16 µM): 55% | viability, T/C (second compound 0.0949 µM, first compound 10 µM): 45.6% | viability, T/C [21]: 59.1% | viability, T/C [22]: 46.3% | viability, T/C [23]: 53.9% | viability, T/C [24]: 51.6% | viability, T/C (second compound 0.3 µM, first compound 3.16 µM): 45.4% | viability, T/C (second compound 0.3 µM, first compound 10 µM): 42.8%

Nc1ccn(C2OC(CO)C(O)C2(F)F)c(=O)n1 (centres undefined) + CCn1c(-c2cc(N3CCN(C)CC3)cnc2C(C)OC)c2c3cc(ccc31)-c1csc(n1)CC(NC(=O)C1CC1C)C(=O)N1CCCC(N1)C(=O)OCC(C)(C)C2
IC50 (second compound 0.000949 µM): < 3.16 nM | IC50 (second compound 0.003 µM): < 3.16 nM | IC50 (second compound 0.00949 µM): < 3.16 nM | IC50 (second compound 0.03 µM): < 3.16 nM | IC50 (second compound 0.0949 µM): < 3.16 nM | IC50 (second compound 0.3 µM): < 3.16 nM | viability, T/C (second compound 0.000949 µM, first compound 0.00316 µM): 35.3% | viability, T/C (second compound 0.000949 µM, first compound 0.01 µM): 29% | viability, T/C [1]: 30.2% | viability, T/C [2]: 21% | viability, T/C [3]: 22.9% | viability, T/C [4]: 12% | viability, T/C (second compound 0.003 µM, first compound 0.00316 µM): 39% | viability, T/C (second compound 0.003 µM, first compound 0.01 µM): 33.4% | viability, T/C [5]: 36% | viability, T/C [6]: 28% | viability, T/C [7]: 20.5% | viability, T/C [8]: 17.2% | viability, T/C (second compound 0.00949 µM, first compound 0.00316 µM): 32.2% | viability, T/C (second compound 0.00949 µM, first compound 0.01 µM): 28.8% | viability, T/C [9]: 29.9% | viability, T/C [10]: 21.4% | viability, T/C [11]: 19.8% | viability, T/C [12]: 20.6% | viability, T/C (second compound 0.03 µM, first compound 0.00316 µM): 22.5% | viability, T/C (second compound 0.03 µM, first compound 0.01 µM): 20.6% | viability, T/C [13]: 18.3% | viability, T/C [14]: 19.4% | viability, T/C [15]: 13.7% | viability, T/C [16]: 12.7% | viability, T/C (second compound 0.0949 µM, first compound 0.00316 µM): 10.2% | viability, T/C (second compound 0.0949 µM, first compound 0.01 µM): 11.2% | viability, T/C [17]: 13.3% | viability, T/C [18]: 12.4% | viability, T/C [19]: 9.85% | viability, T/C [20]: 7.8% | viability, T/C (second compound 0.3 µM, first compound 0.00316 µM): 13.4% | viability, T/C (second compound 0.3 µM, first compound 0.01 µM): 9.3% | viability, T/C [21]: 11.2% | viability, T/C [22]: 11.1% | viability, T/C [23]: 9.17% | viability, T/C [24]: 11.8%
